Measurements published in the NIST ThermoML archive (doi:10.1021/je400535t).

Test: molar heat capacity at constant pressure
Conditions: 101.33 kPa, Crystal, Small (less than 1 g) adiabatic calorimetry

O=C([O][Sb]([O]C(=O)C12CC3CC(CC(C3)C1)C2)([c]1ccccc1)([c]1ccccc1)[c]1ccccc1)C12CC3CC(CC(C3)C1)C2
Conditions | molar heat capacity at constant pressure [J/K/mol]
5 K | 2.04
6.41 K | 4.28
6.94 K | 5
7.48 K | 6.19
8.31 K | 8.15
9.04 K | 10
9.66 K | 11.6
10 K | 12.5
10.2 K | 13.1
10.77 K | 14.6
11.22 K | 16
11.69 K | 17.3
12.18 K | 18.9
12.78 K | 20.8
13.14 K | 22
13.61 K | 23.6
14.14 K | 25.5
14.53 K | 26.8
15 K | 28.4
15.03 K | 28.42
15.43 K | 29.84
15.87 K | 31.16
16.49 K | 33.38
17.1 K | 35.31
17.71 K | 37.46
18.32 K | 39.7
18.89 K | 41.48
19.52 K | 43.6
20 K | 45.29
20.03 K | 45.33
21.3 K | 50
21.81 K | 51.4
22.55 K | 53.73
23.78 K | 58.14
24.3 K | 60.3
25 K | 62.48
25.02 K | 62.63
26.25 K | 66.95
26.83 K | 69
27.53 K | 71.5
28.8 K | 76.1
29.43 K | 78.2
30 K | 80.54
30.12 K | 81.06
31.46 K | 85.96
32.84 K | 90.86
33.37 K | 92.7
34.23 K | 95.66
35 K | 98.3
35.64 K | 100.4
37.11 K | 105.3
38.61 K | 110.2
39.32 K | 112.6
40 K | 114.6
40.13 K | 115
41.68 K | 119.9
43.2 K | 124.6
44.84 K | 129.5
45 K | 130
46.46 K | 134.4
48.11 K | 139.3
49.81 K | 144.3
50 K | 144.9
51.54 K | 149.4
53.3 K | 154.6
55.08 K | 159.8
56.92 K | 165
58.79 K | 170.2
60 K | 173.4
60.68 K | 175.3
62.61 K | 180.4
64.56 K | 185.5
65.56 K | 188.2
66.56 K | 190.7
67.71 K | 194
68.61 K | 196.1
69.83 K | 198.9
70 K | 199.7
71.36 K | 203.1
72.79 K | 206.9
74.91 K | 212.3
76.18 K | 214.9
77.05 K | 217.4
79.88 K | 223.6
80 K | 223.8
82.03 K | 228.1
82.81 K | 229.3
84.2 K | 232.4
84.88 K | 233.7
86.94 K | 238
87.67 K | 240.1
89 K | 242.4
90 K | 244.7
90.77 K | 246
91.06 K | 246.7
93.12 K | 251.6
93.18 K | 251.3
95.1 K | 255.9
97.23 K | 260.6
99.29 K | 265.2
100 K | 266.9
101.34 K | 269.7
103.39 K | 274.4
105.44 K | 279.4
107.49 K | 283.8
109.54 K | 288
110 K | 289.1
111.58 K | 292.9
113.6 K | 297.5
115.64 K | 301.6
117.68 K | 306.6
119.72 K | 310.6
120 K | 311.3
121.6 K | 314.8
123.78 K | 319.2
125.8 K | 323.9
127.83 K | 328.3
129.85 K | 332.6
130 K | 333.5
131.86 K | 337.5
133.87 K | 341.8
135.88 K | 346.7
137.88 K | 351.3
